Values joined by “and” are separate entries in the source; they are usually repeats but may differ in a detail not shown here. Identical values can stand only once.
Assays:
[1] = system: LHGFR0N7C expressed in HEK293FT cells; test: Specificity of LHGFR0N7C expressed in permeabilized HEK293FT cells, 1 mM compounds; assay type: cell-based, human (HEK293FT cells); conditions: Supplementary Fig. 17d; Control about 1
Description: (§1) To characterize the sensitivity and specificity of LHGFR expressed in HEK293FT cells, cells were trypsinized 48 h following transfection and suspended in 1× Hank’s balanced salt solution supplemented with 20 mM HEPES. […] Digitonin at a concentration of 10 μM was used to induce cell permeabilization and deplete intracellular L-2-HG for in vivo response curves construction. Then, the fluorescence intensities were determined by a SpectraMax i3 fluorescence plate reader (Molecular Devices, USA) with excitation at 430 nm and emission at 485 nm (mTFP) and 528 nm (Venus). Basal L-2-HG concentration in HEK293FT cells under physiological conditions was determined by substituting the emission ratios of non-permeabilized HEK293FT cells into the calibrated in vivo response curves.

[2] = system: LHGFR0N3C expressed in HEK293FT cells; test: Specificity of LHGFR0N3C expressed in permeabilized HEK293FT cells, 1 mM compounds; assay type: cell-based, human (HEK293FT cells); conditions: 1 mM compound, cells permeabilized with 10 μM digitonin, normalized to control
Description: as §1

LHGFR0N3C [3] = test: Influence of other compounds on the response of purified LHGFR0N3C to L-2-HG; assay type: binding, Pseudomonas putida W619
Description: (§2) Purified L-2-HG biosensors and different compounds were diluted by 50 mM Tris-HCl buffer (pH 7.4), mixed together in a black 96-well plate at a volume ratio of 3:1, and the fluorescence intensities were measured using an EnSight microplate reader (PerkinElmer, USA) with excitation at 430 nm, emission at 485 nm (mTFP) and 528 nm (Venus). […] The [L-2-HG], Kd, and p refer to the L-2-HG concentration, apparent dissociation constant, and Hill slope, respectively. Emission spectra were recorded at 430 nm excitation, in steps of 2 nm. Excitation spectra were recorded using emission at 550 nm, excitation from 380 to 535 nm in steps of 2 nm.

LHGFR0N7C [4] = test: Specificity of purified LHGFR0N7C, emission ratio with 240 μM compounds; assay type: binding, Pseudomonas putida W619; conditions: 240 μM compound
Description: as §2

[5] = system: LHGFR3N7C expressed in E. coli BL21(DE3); test: Control biosensor LHGFR3N7C expressed in E. coli, response to added compounds; assay type: cell-based; conditions: Supplementary Fig. 14a
Description: (§3) To characterize the sensitivity and specificity of LHGFR expressed in E. coli BL21(DE3), 90 μL cell suspensions following 8 h carbon starvation were mixed with 10 μL increasing concentrations of L-2-HG or other compounds, and then added into a black 96-well plate (total 100 μL/per well), the fluorescence intensities were determined using an EnSight microplate reader (PerkinElmer, USA) and the following instrument settings: excitation at 430 nm, emission at 485 nm (mTFP) and 528 nm (Venus), time intervals of 5 min, the temperature at 37 °C, and shake at 180 rpm.

[6] = system: LHGFR0N7C expressed in E. coli BL21(DE3); test: Specificity of LHGFR0N7C expressed in E. coli BL21(DE3), 1 mM compounds; assay type: cell-based; conditions: Supplementary Fig. 13c
Description: as §3

LhgR = test: EMSA, effect of compounds on LhgR binding to the lhgO promoter region F1; set-up: species or system Pseudomonas putida W619; conditions: 50 mM compound, 10 nM F1, 60 nM LhgR
Description: Electrophoretic mobility shift assays (EMSAs) were carried out using the DNA fragment (F1 or F2) and purified LhgR. The DNA fragments were first amplified by primer pairs F1-F/F1-R and F2-F/F2-R, respectively. Then, either fragment at a concentration of 10 nM DNA was incubated with LhgR (0–160 nM) in 20 μL EMSA binding buffer (10 mM Tris-HCl [pH 7.4], 50 mM KCl, 0.5 mM EDTA, 10% [vol/vol] glycerol, and 1 mM dithiothreitol [DTT]). The binding reactions were carried out at 30 °C for 30 min. Electrophoresis was performed on 6% native polyacrylamide gels at 4 °C and 170 V (constant voltage) for about 45 min, followed by staining with SYBR green I (TaKaRa, China) and photographing. Analysis of the interaction between lhgO promoter region (F1) and LHGFR was performed using the same procedure.
To characterize the effector of LhgR, purified LhgR was first incubated with L-lysine, 5-aminovalerate, glutarate, L-2-HG, D-2-HG, 2-KG, or succinate at 30 °C for 15 min, followed by incubation with the added DNA fragments at 30 °C for 30 min. The mixtures were subsequently subjected to electrophoresis.

LHGFR0N3C [7] = test: Specificity of purified LHGFR0N3C, emission ratio with 240 μM compounds; assay type: binding, Pseudomonas putida W619; conditions: 240 μM compound
Description: as §2

LHGFR0N7C [8] = test: Influence of other compounds on the response of purified LHGFR0N7C to L-2-HG; assay type: binding, Pseudomonas putida W619; conditions: Suppl. Fig. 9b; L-2-HG alone or with the compound; three replicates
Description: as §2

## O=C(O)CC[C@@H](O)C(=O)O [D-2-HG]
[1]
  Normalized emission ratio: 1.116 and 1.067 and 1.082
[2]
  Normalized emission ratio: 1.056 and 1.057 and 1.069
LHGFR0N3C [3]; 240 μM D-2-HG, 1 mM 2-KG or 1 mM ATP for dose-response curves
  Influence on the response of LHGFR0N3C to L-2-HG: could barely affect the response of LHGFR0N3C to L-2-HG
LHGFR0N3C [3]; Suppl. Fig. 9a, L-2-HG alone or with the compound, three replicates
  Emission ratio: 2.0547 and 2.056 and 2.045
LHGFR0N7C [4]
  Emission ratio: 1.984 and 1.994 and 1.98
[5]; time 0 min
  normalized emission ratio of control biosensor expressed in E. coli: 1.02 and 1.012 and 1.01 and 1.0239
[5]; time 5 min
  normalized emission ratio of control biosensor expressed in E. coli: 1.007 and 1.013 and 1.012 and 1.022
[5]; time 10 min
  normalized emission ratio of control biosensor expressed in E. coli: 1.011 and 1.012 (2×) and 1.02
[5]; time 15 min
  normalized emission ratio of control biosensor expressed in E. coli: 1.008 and 1.007 and 1.013 and 1.022
[5]; time 20 min
  normalized emission ratio of control biosensor expressed in E. coli: 1.004 and 1.013 and 1.022 and 1.028
[5]; time 25 min
  normalized emission ratio of control biosensor expressed in E. coli: 1.0101 and 1.011 and 1.02 and 1.024
[5]; time 30 min
  normalized emission ratio of control biosensor expressed in E. coli: 1.007 and 1.022 and 1.016 and 1.027
[5]; time 35 min
  normalized emission ratio of control biosensor expressed in E. coli: 1.021 and 1.0176 and 1.025 and 1.027
[5]; time 40 min
  normalized emission ratio of control biosensor expressed in E. coli: 1.019 (2×) and 1.013 and 1.028
[5]; time 45 min
  normalized emission ratio of control biosensor expressed in E. coli: 1.015 and 1.017 and 1.0244 and 1.023
[5]; time 50 min
  normalized emission ratio of control biosensor expressed in E. coli: 1.007 and 1.012 and 1.0275 and 1.019
[5]; time 55 min
  normalized emission ratio of control biosensor expressed in E. coli: 1.011 (2×) and 1.037 and 1.027
[5]; time 60 min
  normalized emission ratio of control biosensor expressed in E. coli: 1.016 and 1.014 and 1.0182 and 1.0226
[5]; time 65 min
  normalized emission ratio of control biosensor expressed in E. coli: 1.014 and 1.022 and 1.029 and 1.023
[5]; time 70 min
  normalized emission ratio of control biosensor expressed in E. coli: 1.021 and 1.015 and 1.038 and 1.03
[5]; time 75 min
  normalized emission ratio of control biosensor expressed in E. coli: 1.0229 and 1.021 and 1.034 and 1.027
[5]; time 80 min
  normalized emission ratio of control biosensor expressed in E. coli: 1.027 and 1.023 and 1.038 (2×)
[5]; time 85 min
  normalized emission ratio of control biosensor expressed in E. coli: 1.021 and 1.027 and 1.032 and 1.0274
[5]; time 90 min
  normalized emission ratio of control biosensor expressed in E. coli: 1.0277 and 1.033 and 1.04 and 1.032
[6]; time 0 min
  normalized emission ratio of biosensor expressed in E. coli: 1.005 and 1.001 and 1.025
[6]; time 5 min
  normalized emission ratio of biosensor expressed in E. coli: 1.058 and 1.062 and 1.055
[6]; time 10 min
  normalized emission ratio of biosensor expressed in E. coli: 1.088 and 1.077 and 1.073
[6]; time 15 min
  normalized emission ratio of biosensor expressed in E. coli: 1.099 and 1.097 and 1.073
[6]; time 20 min
  normalized emission ratio of biosensor expressed in E. coli: 1.1106 and 1.107 and 1.081
[6]; time 25 min
  normalized emission ratio of biosensor expressed in E. coli: 1.121 and 1.111 and 1.082
[6]; time 30 min
  normalized emission ratio of biosensor expressed in E. coli: 1.109 and 1.1104 and 1.081
[6]; time 35 min
  normalized emission ratio of biosensor expressed in E. coli: 1.129 and 1.12 and 1.084
[6]; time 40 min
  normalized emission ratio of biosensor expressed in E. coli: 1.119 and 1.117 and 1.099
[6]; time 45 min
  normalized emission ratio of biosensor expressed in E. coli: 1.1243 and 1.118 and 1.09
[6]; time 50 min
  normalized emission ratio of biosensor expressed in E. coli: 1.133 and 1.117 and 1.095
[6]; time 55 min
  normalized emission ratio of biosensor expressed in E. coli: 1.1262 and 1.1195 and 1.107
[6]; time 60 min
  normalized emission ratio of biosensor expressed in E. coli: 1.117 and 1.122 and 1.102
[6]; time 65 min
  normalized emission ratio of biosensor expressed in E. coli: 1.12 and 1.121 and 1.101
[6]; time 70 min
  normalized emission ratio of biosensor expressed in E. coli: 1.122 and 1.126 and 1.113
[6]; time 75 min
  normalized emission ratio of biosensor expressed in E. coli: 1.124 and 1.132 and 1.112
[6]; time 80 min
  normalized emission ratio of biosensor expressed in E. coli: 1.131 and 1.12 and 1.117
[6]; time 85 min
  normalized emission ratio of biosensor expressed in E. coli: 1.127 and 1.1355 and 1.123
[6]; time 90 min
  normalized emission ratio of biosensor expressed in E. coli: 1.127 and 1.137 and 1.122
LhgR
  Effect on LhgR binding to the lhgO promoter region F1: observed only in the presence of L-2-HG
LHGFR0N3C [7]
  Emission ratio: 1.4562 and 1.441 and 1.426
LHGFR0N7C [8]
  Emission ratio: 2.616 and 2.6121 and 2.633
